Test results: patent publication US20140243239A1, “MULTIPLEXED KINASE INHIBITOR BEADS AND USES THEREOF” (University of North Carolina at Chapel Hill, priority 2011, published 2014)

How the values were obtained:
RTKs [1] = assay: RTK expression in SUM159-R cells (western blot, qRT-PCR); type: cell-based, human; conditions: 10 nM bortezomib, 24 h
Method: (§1) Detailed methods and antibodies are provided in Supplemental Experimental Procedures.
(§2) Generation of AZD6244 resistant SUM159 cells: SUM159 cells were cultured in DMEM/F12 supplemented with 10% FBS media containing 5 μM AZD6244. Media was changed every 2 days, maintaining inhibitor concentrations of 5 μM AZD6244.

c-Myc = c-Myc protein and RNA levels in SUM159 cells (western blot, qRT-PCR); type: cell-based, human
Method: (§3) Western blotting and RTK arrays: Western blotting and RTK array analysis were performed as previously described (Amin et al., 2010). Amin et al. 2010 Sci Transl Med 2, 16ra17. Detailed methods and antibodies are provided in Supplemental Experimental Procedures.
qRT-PCR: Total RNA was isolated from human breast cancer cell lines or murine tumors using the RNeasy® Plus Mini Kit (Qiagen). Real-time RT-PCR was performed on diluted cDNA using the Applied Biosystems 7500 Fast Real-Time PCR System (standard program) and inventoried TaqMan® Gene Expression Assays. Each cDNA sample was assayed in triplicate. Fold change with respect to the calibrator represents the average of the triplicate values, with error bars representing the range of the mean (95% confidence).
(§4) Western blotting: Proteins from cell lysates were separated by SDS-PAGE chromatography, transferred to nitrocellulose membranes, and probed with the indicated primary antibodies. Antibodies recognizing pAKT (S473), pAKT (T308), AURA, pAXL (Y702), AXL, c-Myc, DDR1, EGFR, pERK1/2 (T202/Y204), pHER3 (Y1197), MAX, pMEK1/2 (S217/S221), MEK1/2, MKP3, pP70S6K (T389), pPDGFRβ (Y751), pPDGFRβ (Y1009), pPDGFR (Y857), PDGFRβ, pRAF (S338), pRSK1 (T359/S363), pVEGFR2 (Y1175), VEGFR2 were obtained from Cell Signaling Technology. Antibodies for Cyclin A2, Cyclin B1, Cyclin D1, ERK2, RAF, and pRAF (S259) were obtained from Santa Cruz Biotechnology. The antibody recognizing Bim was obtained from Chemicon. The antibody recognizing p-c-Myc (S62) was obtained from Abeam. Secondary HRP-anti-rabbit and HRP-anti-goat secondary antibodies were from Jackson Immunoresearch Laboratories and Santa Cruz Biotechnology, respectively. Western blots were visualized by incubation with SuperSignal West Pico Chemiluminescent Substrate (Thermo Scientific).

RTKs [2] = assay: RTK tyrosine phosphorylation/expression in SUM159 cells (RTK arrays, western blot); type: cell-based, human
Method: as §3, §4
RTK arrays: Cells were harvested in RTK array lysis buffer containing 20 mM Tris-HCl (pH 8.0), 1% NP-40, 10% glycerol, 137 mM NaCl, 2 mM EDTA, 1×EDTA-free protease inhibitor cocktail (Roche), and 1% each of phosphatase inhibitor cocktails 1 and 2 (Sigma). After incubating on ice for 20 minutes, cell debris was pelleted at 4° C. Lysates (500 μg protein) were applied to R&D Systems Proteome Profiler™ Human Phospho-RTK antibody arrays. Washing and secondary antibody steps were performed according to the manufacturer“s instructions. RTK arrays were visualized by SuperSignal West Pico Chemiluminescent Substrate (Thermo Scientific).

MDA-MB-231 cells = assay: MDA-MB-231 cell growth (Cell-Titer Glo); type: cell-based, human; conditions: for MDA-MB-231 cell growth in combination with AZD6244: combination with AZD6244 (FIG. 12C, 12D, 12G)
Method: (§5) Cell Culture: MDA-MB-231 cells were grown in DMEM/F12 supplemented with 10% FBS. SUM-159 cells were grown in DMEM/F12 supplemented with 10% FBS 1 μg/mL hydrocortisone, and 5 μg/mL insulin. SUM159-R cells were continually grown in the presence of 5 μM AZD6244. For SILAC labeling, cells were grown for five doublings in arginine- and lysine-depleted media (as above) supplemented with either unlabeled L-arginine (42 mg/L) and L-lysine (71 mg/L) or equimolar amounts of heavy isotope labeled [13C6,15N4]arginine (Arg10) and [13C6]lysine (Lys6) (Cambridge Isotope Laboratories). Proliferation was quantified using Cell-Titer Glo Luminescent Cell Viability Assay (Promega). Fresh media containing DMSO or kinase inhibitors was added daily and experiments were performed in triplicate.

SUM159 cells = assay: SUM159 cell growth (Cell-Titer Glo, cell counts); type: cell-based, human; conditions: for SUM159 cell growth inhibition in combination with AZD6244 / SUM159 cell growth inhibition, RTK inhibitor as single agent: Cell-Titer Glo (FIG. 5C, 5D)
Method: as §5

ERK = assay: MEK/ERK activation in C3Tag tumors (western blot); type: in vivo, mouse; conditions: AZD6244 20 mg/kg 28 days; sorafenib 30 mg/kg 26 days
Method: (§6) Treatment began the same day. Tumor size was assessed twice weekly by caliper measurements of tumor areas ((width)2×length))/2 for 21 days. […] Drugs were incorporated into the diet of mice to achieve a daily dose of AZD6244 20 mg/kg and sorafenib 30 mg/kg. […] Tumors at harvest were cut in half and either snap-frozen in liquid nitrogen and stored at −80° C. or placed in neutral buffered 10% formalin solution.
as §4, with “Western blots were visualized by incubation with SuperSignal West Pico Chemiluminescent Substrate (Thermo Scientific).” left out

[3] = tested on: kinome (kinase binding to MIBs) of C3Tag tumors; assay: MIB/MS kinome profile of C3Tag tumors; type: in vivo, mouse; conditions: sorafenib 30 mg/kg, 26 days
Source text: Multiplexed inhibitor bead affinity chromatography: Cells and tumors were lysed and harvested as previously described (Oppermann et al., 2009). Oppermann et al., 2009 Mol Cell Proteo 8 1751-1764. Briefly, lysates were brought to 1 M NaCl and passed through columns of washed inhibitor-conjugated beads (bisindoylmaleimide-X, SB203580, lapatinib, dasatinib, purvalanol B, VI16832, PP58) to isolate protein kinases from the lysates (see Supplemental Experimental Procedures for MIBs preparation). Kinase-bound inhibitor beads were washed with high-salt buffer and 0.1% SDS before elution in 0.5% SDS solution in high heat. Proteins were purified using chloroform/methanol extraction, resuspended in 50 mM ammonium bicarbonate (pH 8.0) or 50 mM HEPES (pH 8.0) for SILAC or iTRAQ respectfully. […]
LC-MS/MS analysis: MS and MS/MS data were acquired using a MALDI TOF/TOF 5800 (AB SCIEX). Peptides were analyzed using ProteinPilot Software Version 3.0 (AB SCIEX) and identification using UniProtKB/Swiss-Prot database (release Oct. 15, 2009). […] ProteinPilot software 3.0 identified and quantified changes in kinase binding to MIBs utilizing the Pro Group Algorithm. […]
Treatment began the same day. Tumor size was assessed twice weekly by caliper measurements of tumor areas ((width)2×length))/2 for 21 days. […]

C3Tag tumors = assay: In vivo tumorigenesis experiment, C3Tag TNBC GEMM (tumor volume); set-up: species or system mouse; conditions: C3Tag mice, 21 days, sorafenib 30 mg/kg in diet
Method: In vivo tumorigenesis experiments: Animal handling and procedures were approved by the University of North Carolina at Chapel Hill Institutional Animal Care and Use Committee and followed the NIH guidelines. Male C3Tag mice were bred with wild type females to produce experimental offspring. Mice were examined for tumors weekly until a palpable mass was found. Treatment began the same day. Tumor size was assessed twice weekly by caliper measurements of tumor areas ((width)2×length))/2 for 21 days. Percent change of tumor volume was calculated using (Final volume−Initial Volume)/Initial Volume and graphed using R (http://www.r-project.org/). Drugs were incorporated into the diet of mice to achieve a daily dose of AZD6244 20 mg/kg and sorafenib 30 mg/kg. Food was provided ab libitum and the amount of daily food intake was pre-determined using Jackson Labs Phenome Database. Tumors at harvest were cut in half and either snap-frozen in liquid nitrogen and stored at −80° C. or placed in neutral buffered 10% formalin solution.

ERK1/2 [4] = assay: ERK activity in SUM159-R cells (western blot); type: cell-based, human; conditions: sorafenib (250 nM) added to 5 μM AZD6244
Method: as §1, §2, §4

RTKs [5] = assay: RTK expression in C3Tag tumors (western blot); type: in vivo, mouse; conditions: AZD6244 20 mg/kg 28 days; sorafenib 30 mg/kg 26 days
Method: as §6, §4

SUM159-R cells = assay: Growth of AZD6244-resistant SUM159-R cells; type: cell-based, human; conditions: 250 nM sorafenib, 72 h, cells grown in 5 μM AZD6244
Method: as §5, §2

[6] = tested on: ALK, RET, INSR and IGF-1R; assay: RTK phosphorylation in pancreatic cancer cells (RTK arrays); type: cell-based
Method: (§7) Kinome reprogramming in pancreatic cancer—cell type and inhibitor specific. The kinome response to drug in 3 pancreatic cancer cell lines (HPAC, AsPC-1, HPAF-II) was also evaluated using 3 kinase inhibitors that are currently in Phase I/II clinical trials: BKM120 (Novartis), an oral pan-class 1 PI3K inhibitor, […] (Glaxo Smith-Kline), an ATP competitive PI3K/mTOR inhibitor, and GSK1120212, a reversible allosteric inhibitor of MEK1/2 (Glaxo Smith-Kline). The kinome response for GSK2126458 and GSK1120212 was compared using MIB/MS and RTK arrays to determine if kinome reprogramming was inhibitor-specific. […] Thus, kinome reprogramming is target-specific.
Kinome reprogramming in pancreatic cancer cell lines: HPAC, AsPC-1, HPAF-II cell lines were treated with either GSK1120212, GSK2126458, BKM120 or vehicle control and harvested at […]. Normalized spot intensity of RTK arrays were measured and activated and repressed RTK were determined in response to either GSK1120212 or GSK2126458 4 h and 72 h after treatment.

p70 S6 kinase [7] = assay: p70 S6 kinase activity in HPAC pancreatic cancer cells; type: cell-based
Method: as §7

ERK1/2 [8] = assay: Western blot of MEK/ERK signaling in SUM159 cells; type: cell-based, human; conditions: BEZ235 (FIG. 10F)
Source text: as §1, §4

p70 S6 kinase [9] = assay: p70 S6 kinase activity in SUM159 cells; type: cell-based, human; conditions: BEZ235 (FIG. 10F)
Source text: as §1, §4

## CC(C)C[C@H](NC(=O)[C@H](Cc1ccccc1)NC(=O)c1cnccn1)B(O)O [bortezomib]
RTKs [1]
  RTK expression in SUM159-R cells: readily reversed RTK expression
c-Myc; bortezomib with 5 μM AZD6244, 24 h
  AZD6244-induced c-Myc degradation: prevented AZD6244-induced c-Myc degradation
RTKs [2]; bortezomib 3, 10 or 20 nM with 5 μM AZD6244, 24 h
  AZD6244-dependent upregulation of RTKs: inhibited upregulation of RTKs

## COc1cc2c(Oc3ccc(NC(=O)C4(C(=O)Nc5ccc(F)cc5)CC4)cc3F)ccnc2cc1OCCCN1CCOCC1 [foretinib]
MDA-MB-231 cells
  MDA-MB-231 cell growth in combination with AZD6244: little effect
SUM159 cells
  SUM159 cell growth inhibition in combination with AZD6244: synergistic
  SUM159 cell growth inhibition, RTK inhibitor as single agent: ineffective as single agents

## CNC(=O)c1cc(Oc2ccc(NC(=O)Nc3ccc(Cl)c(C(F)(F)F)c3)cc2)ccn1 [sorafenib]
ERK
  tumor MEK and ERK compared to untreated animals: strongly activated
[3]
  MIB binding of BRAF, PDGFRβ, CSF1R, DDR1, DDR2, KIT, MLTK and FRK: decreased MIB binding
C3Tag tumors
  effect on tumor progression: no effect
MDA-MB-231 cells
  MDA-MB-231 cell growth in combination with AZD6244: synergizes
ERK1/2 [4]
  ERK activity in SUM159-R cells: inhibited ERK activity
RTKs [5]
  expression of RTKs in C3Tag tumors versus untreated: do not alter RTK expression
RTKs [2]; RTK arrays, 72 h, with AZD6244
  Tyr phosphorylation of RTKs induced by AZD6244: inhibited Tyr phosphorylation of multiple RTKs
SUM159 cells
  SUM159 cell growth inhibition in combination with AZD6244: synergistic
  SUM159 cell growth inhibition, RTK inhibitor as single agent: ineffective as single agents
SUM159 cells; highest dose tested, 72 h
  growth of SUM159 cells, sorafenib at the highest dose tested in combination with AZD6244: synergistically inhibited growth
SUM159 cells; low doses, 72 h
  SUM159 proliferation, sorafenib at low doses in combination with AZD6244: did not significantly stimulate proliferation
SUM159-R cells
  growth of SUM159-R cells, cell counts: Inhibited cell growth

## COc1ncc(-c2ccc3nccc(-c4ccnnc4)c3c2)cc1NS(=O)(=O)c1ccc(F)cc1F [GSK2126458]
[6]
  ALK, RET, INSR and IGF-1R phosphorylation: induced ALK, RET, INSR and IGF-1R phosphorylation
p70 S6 kinase [7]
  p70 S6 kinase activity: inhibited p70 S6 kinase activity

## CCCS(=O)(=O)Nc1ccc(F)c(C(=O)c2c[nH]c3ncc(Cl)cc23)c1F [PLX4720]
SUM159 cells; cotreatment 72 h (FIG. 12F)
  growth of SUM159 cells, RAF inhibitor in combination with AZD6244: stimulated the growth

## N#CC(=C(/N)Sc1ccccc1N)/C(C#N)=C(\N)Sc1ccccc1N [U0126]
MDA-MB-231 cells; 5 μM MEK inhibitor (FIG. 9A)
  growth of MDA-MB-231 cells: inhibited growth
SUM159 cells; 5 μM MEK inhibitor (FIG. 2A)
  growth of SUM159 cells: inhibited growth

## Cn1c(=O)n(-c2ccc(C(C)(C)C#N)cc2)c2c3cc(-c4cnc5ccccc5c4)ccc3ncc21 [BEZ235]
ERK1/2 [8]
  effect on the ERK pathway: little effect
c-Myc; BEZ235 100 nM (FIG. 11C)
  c-Myc expression: does not change
RTKs [2]; 5 μM AZD6244, 50 nM BEZ235 (FIG. 3H)
  RTK phosphorylation profile: did not change the RTK phosphorylation profile except for an increase in phospho-AXL
SUM159 cells; BEZ235 50 nM
  growth of SUM159 cells: strongly growth arrests
p70 S6 kinase [9]
  p70 S6 kinase activity: inhibits p70 S6 kinase activity
